Experimental data from patent publication US10525106B2, “Angiopoietin-based interventions for treating cerebral malaria” (Regeneron Pharmaceuticals, Inc., priority 2013, dated 2020).

Columns and labels:
[1] = tested on: Plasmodium berghei ANKA (PbA); experiment: Parasitemia by thin-blood smear; assay type: in vivo; settings: C57Bl/6 mice, 10 mg/kg artesunate Day 5 sc (Example 4)
Source text: (§1) Cryopreserved Plasmodium berghei ANKA (PbA; MR4, Manassas, Va.) was passaged through naïve C57Bl/6 mice. For the experiment, infection was initiated in C57Bl/6 and BALB/c mice by intraperitoneal (ip) injection of 1×10^6 freshly-isolated parasitized erythrocytes (PE) obtained from donor passage mice. Parasitemia was monitored by thin-blood smear stained with modified Geimsa stain (Protocol Hema3 Stain Set, Sigma, Oakville, ON) by counting at least 1500 erythrocytes. The infected mice were monitored for survival, neurological impairment, vascular leakage, parasite burden, and levels of angiogenic factors and markers of endothelial activation.

[2] = tested on: Plasmodium berghei ANKA (PbA)-induced experimental cerebral malaria; experiment: Survival of mice infected with PbA (Kaplan Meier, log rank test); assay type: in vivo; settings: C57Bl/6 mice, 10 mg/kg artesunate Day 5 sc, alone (Example 4)
Source text: as §1
Post-infection survival of mice was plotted as Kaplan Meier curves using a log rank test for comparison. Quantitative assessment of ECM-associated neurological impairment (impaired coordination and motor performance) was performed daily using the 10 parameter Rapid Murine Coma and Behavioral Score (RMCBS), as previously described by Carroll R W, et al. 2010 in PLoS ONE 5: e13124. […] Total scores for each mouse were calculated and provided as a percentage of the total possible score. […]
Statistical analysis was performed using GraphPad Prism version 4.00 (San Diego, Calif.). Post-infection survival of mice was plotted as Kaplan Meier curves and assessed using log-rank test. […]

Structure (SMILES): C[C@H]1[C@H](OC(=O)CCC(=O)O)O[C@@H]2O[C@@]3(C)CC[C@H]4[C@H](C)CC[C@@H]1[C@@]24OO3 [artesunate, reference compound]
- parasitemia (parasite burden diminished to pre-ECM levels) [1]: < 2%
- survival by Day 8 post infection [2]: less than 60%
- treated mice that died of ECM [2]: 41.7%
